Literature values, collected in patent US20190343121A1, “Cinmethylin Microcapsules with a Shell Made of Tetramethylxylylene Diisocyanate and a Polyamine with at Least Three Amine Groups” (BASF Agro B.V., priority 2016, published 2019).

Settings: at 20° C.

(±)-2-exo-(2-methylbenzyloxy)-1-methyl-4-isopropyl-7-oxabicyclo[2.2.1]heptane [Cinmethylin]
solubility in water: 63 µg/mL
